The results in this text go back to patent US12240849B2, “Nitrogen-containing spiro derivative as RET inhibitor” (GUANGZHOU BAIYUNSHAN PHARMACEUTICAL HOLDINGS CO., LTD. …, priority 2019, dated 2025).

pIC50: −log10 of the molar value. Read-outs that look alike come from different tables or passages of the source.

Data set [1] in a line: Pharmacokinetic evaluation in mice. The class given is in vivo, CD-1 mice (male). The conditions noted are these: male, mouse, plasma, CD-1 mice; for bioavailability: read-out: Bioavailability F; for AUC: read-out: Integrated Concentration AUC; for clearance: read-out: Clearance Rate; for half-life: read-out: Half-life T1/2 (converted). An excerpt: Experiment objective: to test the pharmacokinetic of compound in mice
Experiment material: CD-1 mice (male)
Experiment operations: the pharmacokinetic characteristics of rodents after intravenous injection and oral administration of the compounds were obtained by using a standard scheme. In the experiment, candidate compounds were formulated into clear solutions, and mice were administrated by a single intravenous injection and oral administration. The solvent of the intravenous injection and oral administration was 10% PEG400 (polyethylene glycol 400)+90%(10% hydroxypropyl-β-cyclodextrin). The whole blood samples were collected within 24 hours. All the blood samples were added respectively into labeled plastic centrifuge tubes in which 0.5 M K2-EDTA anticoagulants were pre-added. The blood samples were collected, and centrifuged at 3,000 g for 10 min at 4° C. The supernatant plasma was collected by absorbing and quickly placed in dry ice to keep at −20° C. or lower. Blood concentrations were quantitatively analyzed by using an LC-MS/MS analysis method, and pharmacokinetic parameters, such as peak concentration, peak time, clearance rate, half-life, area under drug concentration-time curve, bioavailability, etc. were calculated.

The test system of data set [2] is Ba/F3 KIF5B-RET-V804L tumor cell xenograft. Put plainly: Efficacy in Ba/F3 KIF5B-RET-V804L tumor cell xenograft model. The class given is in vivo, NPSG mice. The source says: 1) Ba/F3 KIF5B-RET-V804L cells were resuscitated and cultured in vitro to obtain 5×10^7 cells.
2) Forty-five 6-8 week old female mice were adaptively fed for 1 week and weighed.
3) Ba/F3 KIF5B-RET-V804L tumor cells were subcutaneously inoculated into the right scapula position of the mice so as to establish the engineered cell line Ba/F3 KIF5B3-RET-V804L tumor cell xenograft model. Inoculation conditions were as follows: (see Table 3)
(§1) 4) After inoculation, the volume and weight of tumors were measured once a week. When the average tumor volume reached 124.5 mm^3, mice with the tumor volume between 82.9 mm^3 and 145.4 mm^3 were selected and randomly grouped according to the volume and weight of tumors with 6 mice in each group. The administration was started immediately after the grouping. The start date of the administration was recorded as day 0.
(§2) 5) After the administration was started, the mice were continuously administrated for 9 days, and the body weight and tumor volume of the mice were measured on day 3, day 6, and day 9.
6) Data statistics were analyzed by one-way ANOVA. Variance homogeneity difference of data was firstly detected. If there was no difference in the variance homogeneity, an LSD method was used for analysis; and if there was a difference in the variance homogeneity, Dunnett's T3 was selected for data analysis. All data were analyzed by using SPSS 17.0. A p value less than 0.05 was considered a significant difference.

Data set [3] is described as follows: Body weight of mice in Ba/F3 KIF5B-RET xenograft experiment. The class given is in vivo, NPSG mice. To be noted: Ba/F3 KIF5B-RET model, in g (unit assumed). As for the experimental part:
(§3) 4) After inoculation, the volume and weight of tumors were measured once a week. When the average tumor volume reached 104 mm^3, mice were randomly grouped according to the volume and weight of tumors with 6 mice in each group. The administration was started immediately after the grouping. The start date of the administration was recorded as day 0.
(§4) 5) After administration was started, the body weight and tumor volume of the mice were measured respectively on the day 0, day 3, day 6, and day 10.

Data set [4] in a line: Body weight of mice in Ba/F3 KIF5B-RET-V804L xenograft experiment. The class given is in vivo, NPSG mice. The conditions noted are these: 10 mg/kg p.o. BID, Ba/F3 KIF5B-RET-V804L model, in g (unit assumed). The procedure: as §1, §2
The test system of data set [5] is Ba/F3 KIF5B-RET tumor cell xenograft. In words: Efficacy in engineered cell line Ba/F3 KIF5B-RET xenograft model. To be noted: for TGI: TGI = 1-ΔT/ΔC; for Tumor Volume on Day 10 / Tumor Volume on Day 0: average ± standard error. The class given is in vivo, NPSG mice.
Excerpt: To verify efficacy of drugs to be tested alone on the engineered cell line Ba/F3 KIF5B-RET xenograft model of NPSG mice.
1) Ba/F3 KIF5B-RET cells were resuscitated and cultured in vitro to obtain 4×10^7 cells.
2) Sixty 6-8 week old female NPSG mice were adaptively fed for one week and weighed.
3) The Ba/F3 KIF5B-RET cells were subcutaneously inoculated on right scapula of mice according to the inoculation conditions obtained in the pre-test (see Table 7) to establish the Ba/F3 KIF5B-RET tumor cell xenograft model of NPSG mice.
as §3, §4
6) For the experiment of two groups, a T-Test analysis method was used. For a comparison of three or more groups, One-Way ANOVA was used for analysis. For comparing potential synergistic effects, Two-Way ANOVA was used for analysis. All data were analyzed by using SPSS 17.0. A p value less than 0.05 was considered to be a significant difference, and a p value less than 0.01 was considered to be a very significant difference.

Another data set addresses T1, human wild-type RET (Homo sapiens, UniProt P07949).
T1 construct: purchased Reaction Biology Corp
In words: 33P isotope-labeled kinase activity test, wild-type RET. The class given is biochemical. The conditions noted are these: 33P-ATP at Km concentration. The procedure:
(§5) ^33P isotope-labeled kinase activity test (Reaction Biology Corp) was used to determine IC50 value so as to evaluate an inhibitory ability of a test compound on human wild-type, V804M and V804L mutant RET.
(§6) Buffer solution condition: 20 mM 4-(2-hydroxyethyl)piperazine-1-ethanesulfonic acid (Hepes) (pH 7.5), 10 mM MgCl2, 1 mM 1,2-bis[2-[bis(carboxymethyl)amino]ethoxy]ethane (EGTA), 0.02% polyoxyethylene lauryl ether (Brij35), 0.02 mg/mL bovine serum albumin (BSA), 0.1 mM of Na3VO4, 2 mM dithiothreitol (DTT) and 1% DMSO.
(§7) Compound treatment: the compound to be tested was dissolved in 100% DMSO, and then the obtained solution was continuously diluted with DMSO by using Integra Viaflo Assist until a specific concentration was obtained.
(§8) Test procedures: a substrate was dissolved in the newly prepared buffer solution, a kinase to be tested was added therein, and the obtained solution was gently and evenly mixed. DMSO solution in which a compound to be test was dissolved was added in the above evenly mixed reaction solution by using an acoustic technology (Echo 550), and then incubated for 20 minutes at room temperature. […] Kinase activity data was expressed by comparing the kinase activity of the compound to be tested with the kinase activity of a blank group (containing only DMSO). The IC50 value was obtained by curve fitting with Prism4 software (GraphPad).

The target of the next data set is T2, V804M mutant RET (Homo sapiens, UniProt P07949, V804M).
T2 construct: purchased Reaction Biology Corp
Put plainly: 33P isotope-labeled kinase activity test, V804M mutant RET. The class given is biochemical. To be noted: 33P-ATP at Km concentration. The procedure: as §5, §6, §7, §8

For the next data set, the target named is T3, V804L mutant RET (Homo sapiens, UniProt P07949, V804L).
T3 construct: purchased Reaction Biology Corp
In words: 33P isotope-labeled kinase activity test, V804L mutant RET. The data set is classed as biochemical. The conditions noted are these: 33P-ATP at Km concentration. The procedure: as §5, §6, §7, §8

Setting [6] is: 10 mg/kg, oral administration 10 mpk.
Where [7] appears, read: iv, 2 mg/kg, injection administration 2 mpk.

T1 sequence (P07949 29-1114): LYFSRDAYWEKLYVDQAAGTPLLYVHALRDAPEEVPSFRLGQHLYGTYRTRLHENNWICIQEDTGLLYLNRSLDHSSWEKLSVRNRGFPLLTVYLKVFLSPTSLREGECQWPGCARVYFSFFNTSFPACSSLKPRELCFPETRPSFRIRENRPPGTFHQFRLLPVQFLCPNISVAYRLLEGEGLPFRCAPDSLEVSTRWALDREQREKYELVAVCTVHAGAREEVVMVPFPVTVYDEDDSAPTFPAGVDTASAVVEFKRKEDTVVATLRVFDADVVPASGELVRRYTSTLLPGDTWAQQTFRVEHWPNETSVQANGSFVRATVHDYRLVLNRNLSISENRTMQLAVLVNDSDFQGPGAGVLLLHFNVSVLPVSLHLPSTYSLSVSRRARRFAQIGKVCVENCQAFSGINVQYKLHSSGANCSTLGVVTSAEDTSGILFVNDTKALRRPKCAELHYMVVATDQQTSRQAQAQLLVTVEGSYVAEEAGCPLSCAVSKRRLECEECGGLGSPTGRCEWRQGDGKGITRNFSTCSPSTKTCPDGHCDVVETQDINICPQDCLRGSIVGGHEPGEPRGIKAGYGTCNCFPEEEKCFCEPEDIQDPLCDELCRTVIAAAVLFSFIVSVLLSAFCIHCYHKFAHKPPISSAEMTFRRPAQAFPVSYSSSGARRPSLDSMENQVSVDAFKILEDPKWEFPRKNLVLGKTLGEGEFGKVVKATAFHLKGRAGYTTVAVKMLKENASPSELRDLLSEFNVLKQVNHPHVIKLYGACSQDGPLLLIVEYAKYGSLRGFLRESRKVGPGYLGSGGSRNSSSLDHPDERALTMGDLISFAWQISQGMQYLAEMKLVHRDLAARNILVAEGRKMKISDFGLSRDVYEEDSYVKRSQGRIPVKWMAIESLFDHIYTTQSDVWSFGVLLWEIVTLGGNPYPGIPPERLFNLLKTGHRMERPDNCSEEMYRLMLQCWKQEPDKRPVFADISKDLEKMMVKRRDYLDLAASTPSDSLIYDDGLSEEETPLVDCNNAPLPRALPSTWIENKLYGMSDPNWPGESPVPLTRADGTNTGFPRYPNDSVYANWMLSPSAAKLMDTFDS
T2 sequence (P07949 29-1114 V804M): as the sequence (P07949 29-1114) above, with V776M counted along it
T3 sequence (P07949 29-1114 V804L): as the sequence (P07949 29-1114) above, with V776L counted along it

Take `Cc1cc(Nc2cc(C)nc(C3CCC4(CC3)OCCN(C(C)c3ccc(-n5cc(F)cn5)nc3)C4=O)n2)[nH]n1` (single isomer, unassigned) [Compound 014]: in data set [1] (setting [6]), the bioavailability turned out to be 53.7%. The AUC worked out at 49.6 µM·h in data set [1] (setting [6]) and 16.4 µM·h in data set [1] (setting [7]). For the same molecule, the clearance in data set [1] (setting [7]) amounted to 1.65 mL/min/kg. The half-life in data set [1] (setting [7]) was 2.53 h. Besides, the ΔVAC in data set [2] (10 mg/kg p.o. BID Day 0-Day 9) was −6%; in data set [5] (10 mg/kg p.o. BID Day 0-Day 10), 1%. Besides, the Body weight in data set [3] (day 0, 10 mg/kg p.o. BID) is 18 ± 0.57; in data set [3] (day 3, 10 mg/kg p.o. BID), 18.5 ± 0.47; in data set [3] (day 6, 10 mg/kg p.o. BID) it was 18.5 ± 0.75; in data set [3] (day 10, 10 mg/kg p.o. BID), 18.6 ± 0.62; in data set [4] (day 0), 19.5 ± 0.53; in data set [4] (day 3), 20.3 ± 0.72. Besides, the Body weight in data set [4] (day 6) worked out at 20.5 ± 0.72; in data set [4] (day 9), 20.3 ± 0.84.
Consider `Cc1cc(Nc2cc(C)nc(N3CCC4(CC3)CCN(C(C)c3ccc(-n5cc(F)cn5)nc3)C4)n2)[nH]n1` (stereo not drawn) [Compound 003-h], for which, on human wild-type RET, the pIC50 was 7.13.
In the case of `Cc1cc(Nc2cc(C)[nH]n2)nc(N2CCC3(CC2)OCCN(C(C)c2ccc(-n4cc(F)cn4)nc2)C3=O)n1` (stereo not drawn) [Compound 018], the pIC50 against V804M mutant RET was 8.71; against V804L mutant RET, 8.91; at human wild-type RET it was 8.89. Besides, the bioavailability in data set [1] (setting [6]) was determined as 59.7%. Further, the AUC in data set [1] (setting [6]) was found to be 27.7 µM·h; in data set [1] (setting [7]) it was 9.3 µM·h. For the same molecule, the clearance in data set [1] (setting [7]) came out at 6.55 mL/min/kg. Moreover, in data set [1] (setting [7]), the half-life is 2.56 h. Also, the ΔVAC in data set [2] (10 mg/kg p.o. BID Day 0-Day 9) is listed as −7%; in data set [5] (10 mg/kg p.o. BID Day 0-Day 10), 10%; in data set [5] (20 mg/kg p.o. BID Day 0-Day 10) it was −7%. Further, the TGI is recorded as 107% in data set [2] (10 mg/kg p.o. BID Day 0-Day 9, TGI = 1-ΔT/ΔC); 90% in data set [5] (10 mg/kg p.o. BID Day 0-Day 10); 107% in data set [5] (20 mg/kg p.o. BID Day 0-Day 10). In data set [2] (10 mg/kg p.o. BID Day 0-Day 9, average ± standard error), the “Tumor Volume on Day 9” value was 75.5 ± 7.11 mm^3. The “Tumor Volume on Day 0” value in data set [2] (10 mg/kg p.o. BID, average ± standard error) is 125 ± 3.96 mm^3; in data set [5] (10 mg/kg p.o. BID) it was 106.3 ± 7.14 mm^3; in data set [5] (20 mg/kg p.o. BID) it was 102.2 ± 7.09 mm^3. The Body weight in data set [3] (day 0, 10 mg/kg p.o. BID) was 17.7 ± 0.47; in data set [3] (day 0, 20 mg/kg p.o. BID), 17.6 ± 0.58; in data set [3] (day 3, 10 mg/kg p.o. BID) it was 18.2 ± 0.51; in data set [3] (day 3, 20 mg/kg p.o. BID), 18.1 ± 0.56; in data set [3] (day 6, 10 mg/kg p.o. BID), 18.5 ± 0.57; in data set [3] (day 6, 20 mg/kg p.o. BID), 18.3 ± 0.53. For the same molecule, the Body weight in data set [3] (day 10, 10 mg/kg p.o. BID) amounted to 17.7 ± 0.86; in data set [3] (day 10, 20 mg/kg p.o. BID) it was 18.5 ± 0.63; in data set [4] (day 0), 18.6 ± 0.49; in data set [4] (day 3) it was 18.8 ± 0.48; in data set [4] (day 6), 18.6 ± 0.87; in data set [4] (day 9), 19 ± 0.64. In addition, the “Tumor Volume on Day 10” value came to 205.1 ± 29.87 mm^3 in data set [5] (10 mg/kg p.o. BID Day 0-Day 10) and 32.8 ± 6.81 mm^3 in data set [5] (20 mg/kg p.o. BID Day 0-Day 10).
